From patent US6916937B2, “Carbohydrate prodrugs of fluorooxindoles” (Bristol-Myers Squibb Company, priority 2003, dated 2005)

What was measured:
[1] = test system: rat traumatic brain injury (TBI) model; details: Cheney et al. 2001; cited from earlier work
[2] = test system: focal cerebral ischemia (MCAO) in the Wistar rat; experiment: Focal stroke model, permanent MCA and CCA occlusion; format: in vivo; details: 0.3 mg/kg i.v. single bolus two hours after MCA occlusion; infarct measured 24 hours after MCAO
Protocol: To determine the ability of the compounds of the present invention to reduce cell loss resulting from neuronal ischemia, a standard focal cerebral ischemia is induced by permanent occlusion of the left middle cerebral artery (MCA) and common carotid artery (CCA) with one hour occlusion of the right CCA in the Wistar rat. The surgeries are performed using the sub-temporal approach of A. Tamura, et al., J. Cereb. Blood Flow Metab., 1, pp. 53-60, (1981) and its modifications [K. Osborne, et al., J. Neurol Neurosurg. Psychiatry, 50, pp. 402-410 (1987) and S. Menzies, et al., Neurosurgery, 31, pp. 100-107, (1992).]
The compound of Formula II was evaluated in the focal stroke model involving permanent occlusion of the left MCA (MCAO) and CCA (CCAO) and temporary occlusion of the right CCA in the Wistar rat [Gribkoff, et al. Nature Med. 7, pp. 471-477 (2001)]. This procedure results in a reliably large neocortical infarct volume that is measured by means of vital dye exclusion in serial slices through the brain 24 hours after MCAO. In the present test, compounds were administered using an i.v. or i.p. route of administration two hours after occlusion.

[3] = test system: non-BK native currents in the oocytes; experiment: Effect on non-BK native currents in oocytes (current remaining with IBTX); format: cell-based, Xenopus; details: at the tested concentration
Protocol: (§1) The ability of the compound of Formula II to open BK channels and increase whole-cell outward (K^+) BK-mediated currents was assessed under voltage-clamp conditions by determining their ability to increase cloned mammalian (mSlo or hSlo) BK—mediated outward current heterologously expressed in Xenopus oocytes [Butler, A., et al., Science, 261, pp. 221-224 (1993); and Dworetzky, S. I., et al., Mol. Brain Res., 27, pp.189-193 (1994)]. The two BK constructs employed represent nearly structurally identical homologous proteins, and have proven to be pharmacologically identical in our tests. To isolate BK current from native (background, non-BK) current, the specific and potent BK channel-blocking toxin iberiotoxin (IBTX) [Galvez, A., et al., J. Biol. Chem, 265, pp.11083-11090 (1990)] was employed at a supramaximal concentration (50 nM). The relative contribution of BK channels current to total outward current was determined by subtraction of the current remaining in the presence of IBTX (non-BK current) from the current profiles obtained in all other experimental conditions (control, drug, and wash). […] The compound of Formula II was shown in at least 5 oocytes at a concentration of 10 μM to increase BK current to 170% of control of IBTX-sensitive current. […]

[4] = test system: cloned mammalian (mSlo or hSlo) BK channels; experiment: Increase of BK-mediated outward current in Xenopus oocytes, two-electrode voltage clamp; format: cell-based; details: 10 μM; at least 5 oocytes; mSlo or hSlo expressed in Xenopus oocytes
Protocol: as §1

Row | Compound | Reduction in edema in regions adjacent to the impact zone [1] | Reduction of cortical infarct volume vs vehicle-treated control [2] | Effect on non-BK native currents in the oocytes [3] | BK current, % of control of IBTX-sensitive current [4]
1 | COc1ccc(Cl)cc1[C@]1(F)C(=O)Nc2cc(C(F)(F)F)ccc21 [Compound of Formula (S)-II, (S)-3-(5-chloro-2-methoxy-phenyl)-3-fluoro-6-trifluoromethyl-1,3-dihydro-indol-2-one] | significant reductions in edema |  |  | 
2 | COc1ccc(Cl)cc1C1(F)C(=O)Nc2cc(C(F)(F)F)ccc21 (racemic) [compound of Formula II, 3-(5-chloro-2-methoxyphenyl)-1,3-dihydro-3-fluoro-6-(trifluoromethyl)-2H-indol-2-one] |  | about 28% | did not effect | 170 % of control
